Results reported in PMC3675020, “Repositioning of Verrucosidin, a Purported Inhibitor of Chaperone Protein GRP78, as an Inhibitor of Mitochondrial Electron Transport Chain Complex I” (PLoS ONE, 2013).

Biological target: T1, complex I (NADH dehydrogenase) (Mus musculus, UniProt P03888+Q91WD5+Q91YT0+Q9DC70)
T1 construct: gene Ndufs2; native respiratory complex in intact isolated mouse liver mitochondria; with NADH dehydrogenase [ubiquinone] flavoprotein 2, mitochondrial; NADH-ubiquinone oxidoreductase 75 kDa subunit, mitochondrial; NADH dehydrogenase [ubiquinone] iron-sulfur protein 3, mitochondrial; NADH dehydrogenase [ubiquinone] iron-sulfur protein 8, mitochondrial; NADH-ubiquinone oxidoreductase chain 2; NADH-ubiquinone oxidoreductase chain 3; NADH-ubiquinone oxidoreductase chain 4; NADH-ubiquinone oxidoreductase chain 4L; NADH-ubiquinone oxidoreductase chain 5; NADH-ubiquinone oxidoreductase chain 6
Test: NADH:DCIP reduction, absorbance […] nm
Format: biochemical
Settings: isolated mouse liver mitochondria; DCIP as artificial electron acceptor, glycylglycine pH 8.5; turnover only

NC(=O)C1=CN([C@@H]2O[C@H](COP(=O)(O)OP(=O)(O)OC[C@H]3O[C@@H](n4cnc5c(N)ncnc54)[C@H](O)[C@@H]3O)[C@@H](O)[C@H]2O)C=CC1 [NADH]
NADH:DCIP reduction, absorbance 600 nm: artificial electron acceptor dichlorophenolindophenol (DCIP) in the presence of NADH
